Consider three molecules from BindingDB's records for doi:10.1021/jm9801197 (Kennesaw State University, 1999).

Structures are written as SMILES.

Assay [1] can be described thus: Compound was evaluated for its binding affinity against Cannabinoid receptor 1 in Guinea pig ileum (GPI) using [3H]CP-55940 ligand.
Assay [2] in a line: Compound was evaluated for its binding affinity against Cannabinoid receptor 2 in Guinea pig ileum (GPI) using [3H]CP-55940 ligand.
A short description of assay [3]: Compound was evaluated for its binding affinity against Cannabinoid receptor 1 in Guinea pig ileum (GPI) using [3H]SR-141,716A ligand.
The nature of assay [4]: Compound was evaluated for its binding affinity against Cannabinoid receptor 1 in Guinea pig ileum (GPI) using [3H]SR-141,716A ligand at site 1.
Assay [5] in a line: Compound was evaluated for its binding affinity against Cannabinoid receptor 1 in Guinea pig ileum (GPI) using [3H]SR-141,716A ligand at site 2.

One may read the Ki as the equilibrium dissociation constant of an inhibitor or competing ligand from its target. Read a low Ki as tighter binding. For the molecule `C1=C(CCN2CCOCC2)c2ccccc2/C1=C\c1cccc2ccccc12` [4-(2-{3-[1-Naphthalen-1-yl-meth-(Z)-ylidene]-3H-inden-1-yl}-ethyl)-morpholine], the Ki in assay [1] was 0.148 µM; in assay [2] it was 0.132 µM; in assay [3], 0.928 µM.
In the case of `CC1=C(CCN2CCOCC2)c2ccccc2/C1=C/c1cccc2ccccc12` [4-(2-{2-Methyl-3-[1-naphthalen-1-yl-meth-(Z)-ylidene]-3H-inden-1-yl}-ethyl)-morpholine], the Ki in assay [2] stood at 0.0021 µM.
With `C1=C(CCN2CCOCC2)c2ccccc2/C1=C/c1cccc2ccccc12` [4-(2-{3-[1-Naphthalen-1-yl-meth-(E)-ylidene]-3H-inden-1-yl}-ethyl)-morpholine], the Ki in assay [1] amounted to 0.0027 µM; in assay [4], 0.011 µM; in assay [5], 0.611 µM; in assay [2] it was 0.0027 µM.
